{
  "source": "patent US20030138946A1",
  "format_in_all_cases": "cell-based, mouse",
  "key": {"[1]": {"tested_on": "CD8^+ 2C cells", "test": "CD69 and CD25 expression on CD8+ 2C cells stimulated with transfected Drosophila cells plus peptide", "details": "Drosophila cells expressing L^d alone; peptide 10 μM, 12 hours", "protocol": "TCR stimulation elicited a complex pattern of intracellular events which lead to early up-regulation of CD69 and CD25 (IL-2 receptor or IL-2R) on the cell surface. These changes are apparent within a few hours of stimulation and are followed by cytokine synthesis and cell proliferation. Drosophila cells were transfected with genes for L^d, L^d and B7.1 (L^d.B7), L^d and ICAM-1 (L^d.ICAM) or L^d, B7.1 and ICAM-1 (L^d.B7.1CAM). […] Purified CD8^+ 2C cells were incubated with various Drosophila cells plus a peptide (either p2Ca or QL9, 10 μM) in bulk (2 ml) culture for 12 hours and then stained for CD69 or CD25. Either p2Ca or QL9 presented by Drosophila cells transfected with L^d.B7, L^d.ICAM or L^d.B7.1CAM were effective in stimulating the up-regulation of CD69 and CD25."}, "[2]": {"tested_on": "2C+ T-cells"}, "[3]": {"tested_on": "2C+ T-cells", "test": "Enrichment of 2C+ T-cells from a 1/99 mixture with C57BL/6 CD8+ cells (1B2 staining, flow cytofluorometry)", "protocol": "2C+ T-cells were mixed with total CD8^+ cells from C57BL/6 mice at a 1/99 ratio and cells were cultured with immobilized L^d and anti-CD28 antibody in the presence of peptide QL9. IL-2 was added at day 2 of culture, and subsequently every other day. Cell activation and proliferation was noted, as evidenced by the formation of clumps, presence of enlarged cells that progressively spread in the well. At day 12 of culture, cells were harvested and percentage of cells expressing the 2C T-cell receptor was assessed by staining with the anticlonotypic antibody 1B2 and analysis by flow cytofluorometry: 43% of the cells cultured initially in the presence of peptide QL9 were 2C+, (FIG. 22) whereas 49% of the cells expressed 2C after stimulation with peptide p2Ca (FIG. 23), and 22% with peptide SL9 (FIG. 24). […] Enrichment was observed even with SL9, a peptide that makes a low affinity complex with the 2C T-cell receptor. This method thus can specifically activate and enrich a small subpopulation of antigen specific T-cells out of a heterogenous mixture of T-cells."}, "[4]": {"tested_on": "CD8^+ 2C lymph node cells", "test": "Primary proliferative response of CD8+ 2C lymph node cells to peptides presented by transfected fly cells (3HTdR)", "details": "peptide 10 μM", "protocol": "Using a standard tissue culture system (Cai, Z. and Sprent, J. (1994) J. Exp. Med. 179: 2005-2015), doses of 5×10^4 purified CD8^+ 2C lymph node (LN) cells were cultured at 37° C. with doses of 3×10^5 transfected fly cells ±peptides (10 μM final concentration). Peptides were synthesized by R. W. Johnson Pharmaceutical Research Institute (Sykulev, et al. (1994) Immunity 1: 15-22. Proliferative responses were measured by adding ^3HTdR (1 μCi/well) 8 hours prior to harvest. IL-2 production was measured by removing supernatants from the cultures at 48 hours and adding 50 μl supernatant to an IL-2 responsive indicator cell line (CTLL); proliferation of the indicator line was measured by addition of ^3HTdR. The data shown in Table 2 are the means of triplicate cultures. The transfected Drosophila S2 cells die rapidly at 37° C. and fail to incorporate ^3HTdR at this temperature."}},
  "data": [
    {"substance": "Gln-Leu-Ser-Pro-Phe-Pro-Phe-Asp-Leu [QL9]", "values": [
      {"measurement": "induction of CD69 and CD25 expression", "setting": "[1]", "value": "low, but significant"},
      {"measurement": "thymidine incorporation", "setting": "[2]", "value": "above 100,000 cpm per well"},
      {"measurement": "enrichment in specific T-cells after 12 days", "setting": "[3]; start 1/99", "value": 43, "unit": "times"},
      {"measurement": "cells expressing the 2C T-cell receptor (2C+) at day 12", "setting": "[3]; start 1/99 2C+/total CD8+, immobilized L^d and anti-CD28, IL-2 from day 2", "value": 43, "unit": "%"},
      {"measurement": "Proliferation (Day 3) ^3HTdR incorporation, fly cells expressing L^d", "setting": "[4]; APC L^d", "value": 0.2, "unit": "cpm × 10^3"},
      {"measurement": "Proliferation (Day 3) ^3HTdR incorporation, fly cells expressing L^d + B7.1", "setting": "[4]; APC L^d + B7.1", "value": 60.9, "unit": "cpm × 10^3"},
      {"measurement": "Proliferation (Day 3) ^3HTdR incorporation, fly cells expressing L^d + B7.1 + ICAM-1", "setting": "[4]; APC L^d + B7.1 + ICAM-1", "value": 263.7, "unit": "cpm × 10^3"},
      {"measurement": "Proliferation (Day 3) ^3HTdR incorporation, fly cells expressing L^d + ICAM-1", "setting": "[4]; APC L^d + ICAM-1", "value": 73.9, "unit": "cpm × 10^3"},
      {"measurement": "Proliferation (Day 3) ^3HTdR incorporation, L^d + B7.1 combined with L^d + ICAM-1", "setting": "[4]; mixture of two APC lines", "value": 132.9, "unit": "cpm × 10^3"}
    ]}
  ]
}
